Source: patent US20230203095A1, “BIOLOGICAL PEPTIDE FOR TREATING LUNG DISEASES AND APPLICATION THEREOF” (SHANGHAI INSTITUTE OF PHARMACEUTICAL INDUSTRY CO., LTD., priority 2019, published 2023)
Read-outs that look alike come from different tables or passages of the source. Square brackets hold non-standard residues; d marks the D form. Peptide text beside a SMILES is read from it.

Columns and labels:
[1] = Stability of each 7-peptide compound in rat whole blood; assay type: in vitro ADME; details: for recovery: read-out: Recovery rate (%) M±SD
Description: Preparation of the test product: SP and SIPI-D00 were dissolved and diluted with an appropriate amount of 50% acetonitrile water containing 0.1% formic acid to obtain a working solution with a concentration of 200 µg/mL.
• 1) Fresh rat whole blood was added to the EP tube, and shaken gently to mix well; • 2) The EP tube was pre-incubated in a 37° C. water bath for 5 minutes; • 3) Each compound was added to start the reaction and continued to incubate at 37° C.; • 4) 50 µL sample was taken from the sample tube at 0, 2 min, 5 min, 10 min, 30 min, and 60 min, respectively, into the stop tube, 50 µL of ice-cold 7% perchloric acid was added, and shaken to stop the reaction; • 5) Sample was centrifuged at 13000 r/min for 10 min, 75 µL supernatant was aspirated, 60 µL1.25% ammonia water was added and mixed well. After filtered with […] microporous membrane, 20 µL sample was taken for LC-MS/MS analysis.

[2] = Plasma drug concentrations and pharmacokinetics after a single subcutaneous injection of SP peptide or SIPI-D00 peptide in SD rats; assay type: in vivo
Description: Route: Single back subcutaneous injection;
Dosage of the drug: SP peptide and SIPI-D00 peptide were prepared into 3.33 mg/mL solution with normal saline, the dosage of SP peptide by back subcutaneous injection was 10 mg/kg body weight, and the dosage of SIPI-D00 peptide by back subcutaneous injection was 5 mg/kg body weight. […]

[3] = test system: serum IgE; experiment: Serum IgE level in OVA-induced allergic asthma model mice; assay type: in vivo, BALB/c mice; details: for Serum IgE level (OD450): days 19-28, n=10
Description: The first batch: mice were divided into groups, 10 mice in each group, namely: blank control group (normal saline), model group (OVA, 20 ug/mouse), SP peptide group (administered dose of 175 µg/kg body weight/day, 350 µg/kg body weight/day, respectively), SIPI-D00 peptide group (administered dose of 175 µg/kg body weight/day, 350 µg/kg body weight/day), and dexamethasone group (administered dose of 2 mg/kg body weight/day).
OVA for sensitization was dissolved in sterile PBS solution at a final concentration of 0.2 mg/mL, then an equal volume of aluminum hydroxide adjuvant was added. After shaking for 30 minutes, each mouse was intraperitoneally injected with 0.2 mL (20 µg OVA per mouse).
2% OVA solution was prepared in sterile PBS. The 2% OVA was nebulized with a nebulizer, and the mice were placed in the nebulizer inhalation box for 30 minutes per day.
According to the dosage, SP peptide and SIPI-D00 were dissolved in normal saline respectively, and administered by subcutaneous administration on the back according to the body weight of the animals.
(§1) Mice in the model group, SP peptide group, SIPI-D00 peptide group and dexamethasone group were sensitized by intraperitoneal injection of OVA (20 µg OVA/mice) on day 0, 7, and 14, and challenged by aerosol administration of OVA (once a day for 5 consecutive days) on day 21-25 to construct asthmatic model animals. Mice in the model group were given normal saline on days 21-28; mice in different doses of SP peptide group and SIPI-D00 peptide group were injected subcutaneously with different doses of SP and SIPI-D00 on days 19-28; mice in dexamethasone group were injected intraperitoneally with 2 mg/kg/day dexamethasone on days 21-28. At the same time, 10 mice in the blank control group were fed normally from day 0 to day 28 without any treatment, and were given normal saline as a blank control.
After 28 days, blood was collected from the inner canthus of the mouse, and the serum was collected, and the IgE level in the serum was measured with an ELISA kit. […]
(§2) At the same time, 10 mice in the blank control group were fed normally from day 0 to day 28 without any treatment, and were given normal saline as a blank control.

[4] = test system: OVA-induced asthma model mice; experiment: Lung function (inspiratory airway resistance, lung compliance) in OVA-induced allergic asthma model mice; assay type: in vivo, BALB/c mice; details: for Inspiratory airway resistance / Lung compliance: n=10
Description: The second batch: mice were divided into groups, 10 mice in each group, namely: blank control group (normal saline), model group (OVA, dose of 20 ug/mouse), SP peptide group (administered dose of 87.5 µg/kg body weight/ day, 175 µg/kg body weight/day, 350 µg/kg body weight/day, respectively), SIPI-D00 peptide group (administered dose of 87.5 µg/kg body weight/day, 175 µg/kg body weight/day, 350 µg/kg body weight/day), and Dexamethasone group (administered dose of 2 mg/kg body weight/day).
as §1
On the 28th day, the mice were anesthetized with tracheal intubation and jugular vein intubation, and the inspiratory airway resistance and lung compliance were measured in each group of animals. Each animal was given fold increasing amounts of methacholine via the jugular vein: 0.025 mg/kg, 0.05 mg/kg, 0.1 mg/kg, 0.2 mg/kg. After each dose was given, the lung compliance curve was recorded continuously for 5 minutes, and the inspiratory airway resistance and lung compliance were calculated. […]
as §2

[5] = rat whole blood, 37° C., 1000 ng/mL, incubation time 60 min
[6] = 87.5 ug/kg/day s.c., methacholine 0 mg/kg
[7] = 87.5 ug/kg/day s.c., methacholine 0.025 mg/kg
[8] = 87.5 ug/kg/day s.c., methacholine 0.05 mg/kg
[9] = 87.5 ug/kg/day s.c., methacholine 0.1 mg/kg
[10] = 87.5 ug/kg/day s.c., methacholine 0.2 mg/kg
[11] = 175 ug/kg/day s.c., methacholine 0 mg/kg
[12] = 175 ug/kg/day s.c., methacholine 0.025 mg/kg
[13] = 175 ug/kg/day s.c., methacholine 0.05 mg/kg
[14] = 175 ug/kg/day s.c., methacholine 0.1 mg/kg
[15] = 175 ug/kg/day s.c., methacholine 0.2 mg/kg
[16] = 350 ug/kg/day s.c., methacholine 0 mg/kg
[17] = 350 ug/kg/day s.c., methacholine 0.025 mg/kg
[18] = 350 ug/kg/day s.c., methacholine 0.05 mg/kg
[19] = 350 ug/kg/day s.c., methacholine 0.1 mg/kg
[20] = 350 ug/kg/day s.c., methacholine 0.2 mg/kg

SMILES: C[C@H](O)[C@@H](NC(=O)[C@@H](Cc1ccc(O)cc1)NC(=O)[C@H](NC(=O)[C@@H](CO)NC(=O)CN)[C@H](C)O)C(=O)N[C@H](CCC(N)=O)C(=O)NCC(=O)O [SIPI-D00, GSTYTQG] (H-G[dS][dT][dY][dT][dQ]G-OH)
- stability in whole blood ([1]; compared with SP peptide): significantly higher than that of SP peptide
- recovery ([1]; rat whole blood, 37° C., 1000 ng/mL, incubation time 0 min): 100%
- recovery ([1]; rat whole blood, 37° C., 1000 ng/mL, incubation time 2 min): 97.9 ± 7.4%
- recovery ([1]; rat whole blood, 37° C., 1000 ng/mL, incubation time 5 min): 101 ± 10.7%
- recovery ([1]; rat whole blood, 37° C., 1000 ng/mL, incubation time 10 min): 99.6 ± 1.3%
- recovery ([1]; rat whole blood, 37° C., 1000 ng/mL, incubation time 30 min): 97.9 ± 2.5%
- Recovery rate (%) M±SD [1, 5]: 103±3.9%
- recovery [1, 5]: 100%
- Plasma concentration ([2]; SIPI-D00 5 mg/kg s.c., SD rats, time 0 h, parallels 1-4): 0 ng/mL
- Plasma concentration ([2]; SIPI-D00 5 mg/kg s.c., SD rats, time 0.1 h, parallels 1-4, 5 mg/kg): 5167 ng/mL
- Plasma concentration ([2]; SIPI-D00 5 mg/kg s.c., SD rats, time 0.333 h, parallels 1-4, 5 mg/kg): 5836 ng/mL
- Plasma concentration ([2]; SIPI-D00 5 mg/kg s.c., SD rats, time 0.667 h, parallels 1-4, 5 mg/kg): 5242 ng/mL
- Plasma concentration ([2]; SIPI-D00 5 mg/kg s.c., SD rats, time 2 h, parallels 1-4, 5 mg/kg): 1185 ng/mL
- Fa ([2]; SIPI-D00 5 mg/kg single subcutaneous injection, SD rats, Mean±SD): 96.3±13.3%
- level at 0.1 h ([2]; male, SD, rat, plasma, sc, 5 mg/kg, SIPI-D00 5 mg/kg s.c., SD rats, time 0.1 h, parallels 1-4, read-out: Plasma concentration): 3580 ng/mL
- level at 0.167 h ([2]; male, SD, rat, plasma, sc, 5 mg/kg, SIPI-D00 5 mg/kg s.c., SD rats, time 0.167 h, parallels 1-4, read-out: Plasma concentration): 4720 ng/mL
- level at 0.333 h ([2]; male, SD, rat, plasma, sc, 5 mg/kg, SIPI-D00 5 mg/kg s.c., SD rats, time 0.333 h, parallels 1-4, read-out: Plasma concentration): 5890 ng/mL
- level at 0.667 h ([2]; male, SD, rat, plasma, sc, 5 mg/kg, SIPI-D00 5 mg/kg s.c., SD rats, time 0.667 h, parallels 1-4, read-out: Plasma concentration): 5260 ng/mL
- level at 1 h ([2]; male, SD, rat, plasma, sc, 5 mg/kg, SIPI-D00 5 mg/kg s.c., SD rats, time 1 h, parallels 1-4, read-out: Plasma concentration): 3940 ng/mL
- level at 2 h ([2]; male, SD, rat, plasma, sc, 5 mg/kg, SIPI-D00 5 mg/kg s.c., SD rats, time 2 h, parallels 1-4, read-out: Plasma concentration): 1160 ng/mL
- level at 3 h ([2]; male, SD, rat, plasma, sc, 5 mg/kg, SIPI-D00 5 mg/kg s.c., SD rats, time 3 h, parallels 1-4, read-out: Plasma concentration): 291 ng/mL
- level at 4 h ([2]; male, SD, rat, plasma, sc, 5 mg/kg, SIPI-D00 5 mg/kg s.c., SD rats, time 4 h, parallels 1-4, read-out: Plasma concentration): 53.5 ng/mL
- level at 6 h ([2]; male, SD, rat, plasma, sc, 5 mg/kg, SIPI-D00 5 mg/kg s.c., SD rats, time 6 h, parallels 1-4, read-out: Plasma concentration): 3.51 ng/mL
- AUC compared with SP ([2]; rat, in vivo, sc): significantly improved compared with SP
- AUC(0-t) ([2]; rat, in vivo, sc, 5 mg/kg): 8820 ± 1320 ng·h/mL
- Cmax ([2]; rat, in vivo, sc, 5 mg/kg): 5910 ± 447 ng/mL
- MRT last ([2]; rat, in vivo, sc, 5 mg/kg): 57.8 ± 1.14 min
- Tmax ([2]; rat, in vivo, sc, 5 mg/kg): 12.5 ± 4.98 min
- half-life ([2]; rat, in vivo, sc, 5 mg/kg): 90 min
- Serum IgE level (OD450) ([3]; 175 ug/kg/day subcutaneous): 0.421 ± 0.044 OD450
- Serum IgE level (OD450) ([3]; 350 ug/kg/day subcutaneous): 0.279 ± 0.036 OD450
- IgE level in the serum (in words) ([3]; compared with the model group and SP peptide group): significantly decreased
- Inspiratory airway resistance [4, 6]: 1.00±0.00
- Lung compliance [4, 6]: 1.00±0.00
- Inspiratory airway resistance [4, 7]: 1.32±0.32
- Lung compliance [4, 7]: 0.80±0.18
- Inspiratory airway resistance [4, 8]: 1.64±0.35
- Lung compliance [4, 8]: 0.64±0.14
- Inspiratory airway resistance [4, 9]: 1.86±0.43
- Lung compliance [4, 9]: 0.57±0.13
- Inspiratory airway resistance [4, 10]: 2.05±0.51
- Lung compliance [4, 10]: 0.52±0.13
- Inspiratory airway resistance [4, 11]: 1.00±0.00
- Lung compliance [4, 11]: 1.00±0.00
- Inspiratory airway resistance [4, 12]: 1.21±0.15
- Lung compliance [4, 12]: 0.84±0.10
- Inspiratory airway resistance [4, 13]: 1.35±0.18
- Lung compliance [4, 13]: 0.75±0.10
- Inspiratory airway resistance [4, 14]: 1.47±0.21
- Lung compliance [4, 14]: 0.69±0.093
- Inspiratory airway resistance [4, 15]: 1.58±0.34
- Lung compliance [4, 15]: 0.65±0.12
- Inspiratory airway resistance [4, 16]: 1.00±0.00
- Lung compliance [4, 16]: 1.00±0.00
- Inspiratory airway resistance [4, 17]: 1.28±0.30
- Lung compliance [4, 17]: 0.83±0.14
- Inspiratory airway resistance [4, 18]: 1.43±0.35
- Lung compliance [4, 18]: 0.70±0.19
- Inspiratory airway resistance [4, 19]: 1.61±0.47
- Lung compliance [4, 19]: 0.55±0.18
- Inspiratory airway resistance [4, 20]: 1.74±0.51
- Lung compliance [4, 20]: 0.49±0.19
- inspiratory phase resistance (in words) ([4]; compared with the model group): significantly decreased
- lung compliance (in words) ([4]; compared with the model group): significantly increased
